From patent US9873883B2, “Glyphosate resistant plants and associated methods” (Dow AgroSciences LLC, priority 2012, dated 2018)

How the values were obtained:
Assay in all cases: Postemergence glyphosate tolerance, visual injury
Format in all cases: in vivo, Arabidopsis thaliana
[1] = tested on: Arabidopsis transformed with TraP8 v2::dgt-14 (pDAB105526); details: for Visual % injury (Ave): 2 weeks after application
Text: (§1) Transgenic T1 Arabidopsis plants containing the dgt-14 transgene were sprayed with differing rates of glyphosate. A distribution of varying concentrations of glyphosate rates, including elevated rates, were applied in this study to determine the relative levels of resistance (105, 420, 1,680 or 3,360 g ae/ha). The typical 1× field usage rate of glyphosate is 1,120 g ae/ha. The T1 Arabidopsis plants that were used in this study were variable in copy number for the dgt-14 transgene. The low copy dgt-14 T1 Arabidopsis plants were identified using the molecular confirmation assays described above, and self-pollinated and used to produce T2 plants.
(§2) The Arabidopsis T1 transformants were first selected from the background of untransformed seed using a glufosinate selection scheme. Three flats or 30,000 seed were analyzed for each T1 construct. The T1 plants selected above were molecularly characterized and the plants were subsequently transplanted to individual pots and sprayed with various rates of commercial glyphosate as previously described. The dose response of these plants is presented in terms of % visual injury 2 weeks after treatment (WAT). […] An arithmetic mean and standard deviation is presented for each construct used for Arabidopsis transformation. The range in individual response is also indicated in the last column for each rate and transformation. Wildtype, non-transformed Arabidopsis (c.v. Columbia) served as a glyphosate sensitive control.
(§3) Selected T1 Arabidopsis plants which were identified to contain low-copy numbers of transgene insertions (1-3 copies) were self-fertilized to produce a second generation for additional assessment of glyphosate tolerance. […] In the T2 generation hemizygous and homozygous plants were available for testing for each event and therefore were included for each rate of glyphosate tested. Hemizygous plants contain two different alleles at a locus as compared to homozygous plants which contain the same two alleles at a locus. The copy number and ploidy levels of the T2 plants were confirmed using the molecular analysis protocols previously described. Likewise, glyphosate was applied using the methods and rates as previously described. The dose response of the plants is presented in terms of % visual injury 2 weeks after treatment (WAT). […] An arithmetic mean and standard deviation are presented for each construct used for Arabidopsis transformation. The range in individual response is also indicated in the last column for each rate and transformation. Wildtype, non-transformed Arabidopsis (cv. Columbia) served as a glyphosate sensitive control. In addition, plants comprising a glyphosate herbicide resistance gene, dgt-1 (as described in U.S. patent Ser. No. 12/558,351, incorporated herein by reference in its entirety) were included as a positive control.
(§4) Randomly selected T2 Arabidopsis plants which were identified to contain low-copy numbers of transgene insertions (1-3 copies) were self-fertilized to produce a third generation for additional assessment of glyphosate tolerance. Arabidopsis seed from the third generation (T3) were planted and evaluated for glyphosate tolerance using the same protocols as previously described. […] These Events were assayed via LC-MS-MS to confirm that the plants expressed the DGT-14 protein. […] Exemplary resistant T3 Events comprised dgt-14 linked with TraP8 v2 (pDAB105526), TraP9 v2 (pDAB105527), TraP12 v2 (pDAB105528) and TraP13 v2 (pDAB105529).

[2] = tested on: Arabidopsis transformed with TraP5 v1::dgt-14 (pDAB102787); details: 2 weeks after application
Text: as §1, §2, §3, §4

[3] = tested on: Non-transformed control Arabidopsis (cv. Columbia); details: 2 weeks after application
Text: as §1, §2, §3, §4

[4] = tested on: Arabidopsis transformed with TraP13 v2::dgt-14 (pDAB105529); details: for Visual % injury (Ave): 2 weeks after application
Text: as §1, §2, §3, §4

[5] = tested on: Arabidopsis transformed with TraP4 v5::dgt-14 (pDAB107526); details: 2 weeks after application
Text: as §1, §2, §3, §4

[6] = tested on: Arabidopsis with dgt-1 (pDAB3759), T2 segregating population; details: 2 weeks after application
Text: as §1, §2, §3, §4

[7] = tested on: Arabidopsis transformed with TraP9 v2::dgt-14 (pDAB105527); details: for Visual % injury (Ave): 2 weeks after application
Text: as §1, §2, §3, §4

[8] = T2, all concentrations of glyphosate tested
[9] = T3, all concentrations of glyphosate tested

O=C(O)CNCP(=O)(O)O [glyphosate, N-(phosphonomethyl)glycine]
Visual % injury (Ave) ([1]; T1, 105 g ae/ha): 40.0% | Visual % injury (Ave) ([1]; T1, 420 g ae/ha): 23.8% | Visual % injury (Ave) ([1]; T1, 1680 g ae/ha): 66.3% | Visual % injury (Ave) ([1]; T1, 3360 g ae/ha): 26.5% | Visual % injury (Ave) ([1]; T2, 420 g ae/ha): 0.5% | Visual % injury (Ave) ([1]; T2, 840 g ae/ha): 0.0% | Visual % injury (Ave) ([1]; T2, 1680 g ae/ha): 2.5% | Visual % injury (Ave) ([1]; T2, 3360 g ae/ha): 5.0% | injury range [1, 8]: less than 20% | Visual % injury (Ave) ([1]; T3, 420 g ae/ha): 0.0% | Visual % injury (Ave) ([1]; T3, 840 g ae/ha): 1.3% | Visual % injury (Ave) ([1]; T3, 1680 g ae/ha): 0.0% | Visual % injury (Ave) ([1]; T3, 3360 g ae/ha): 4.0% | injury range [1, 9]: less than 20% | Visual % injury (Ave) ([2]; T1, 105 g ae/ha): 64.0% | Visual % injury (Ave) ([2]; T1, 420 g ae/ha): 99.0% | Visual % injury (Ave) ([2]; T1, 1680 g ae/ha): 100.0% | Visual % injury (Ave) ([2]; T2, 420 g ae/ha): 90.0% | Visual % injury (Ave) ([2]; T2, 1680 g ae/ha): 88.8% | Visual % injury (Ave) ([2]; T2, 3360 g ae/ha): 94.5% | Visual % injury (Ave) ([2]; T3, 420 g ae/ha): 85.0% | Visual % injury (Ave) ([2]; T3, 1680 g ae/ha): 93.7% | Visual % injury (Ave) ([2]; T3, 3360 g ae/ha): 93.7% | Visual % injury (Ave) ([3]; T1 study, 105 g ae/ha): 100.0% | Visual % injury (Ave) ([3]; T1 study, 420 g ae/ha): 100.0% | Visual % injury (Ave) ([3]; T1 study, 1680 g ae/ha): 100.0% | Visual % injury (Ave) ([3]; T1 study, 3360 g ae/ha): 100.0% | Visual % injury (Ave) ([3]; T2 study, 420 g ae/ha): 100.0% | Visual % injury (Ave) ([3]; T2 study, 1680 g ae/ha): 100.0% | Visual % injury (Ave) ([3]; T2 study, 3360 g ae/ha): 100.0% | Visual % injury (Ave) ([3]; T3 study, 420 g ae/ha): 100.0% | Visual % injury (Ave) ([3]; T3 study, 1680 g ae/ha): 100.0% | Visual % injury (Ave) ([3]; T3 study, 3360 g ae/ha): 100.0% | Visual % injury (Ave) ([4]; T1, 105 g ae/ha): 34.5% | Visual % injury (Ave) ([4]; T1, 420 g ae/ha): 21.3% | Visual % injury (Ave) ([4]; T1, 1680 g ae/ha): 27.0% | Visual % injury (Ave) ([4]; T1, 3360 g ae/ha): 32.8% | Visual % injury (Ave) ([4]; T2, 420 g ae/ha): 0% | Visual % injury (Ave) ([4]; T2, 1680 g ae/ha): 1.8% | Visual % injury (Ave) ([4]; T2, 3360 g ae/ha): 3.8% | injury range [4, 8]: less than 20% | Visual % injury (Ave) ([4]; T3, 420 g ae/ha): 0.0% | Visual % injury (Ave) ([4]; T3, 1680 g ae/ha): 0.0% | Visual % injury (Ave) ([4]; T3, 3360 g ae/ha): 1.8% | injury range [4, 9]: less than 20% | Visual % injury (Ave) ([5]; T1, 105 g ae/ha): 85.8% | Visual % injury (Ave) ([5]; T1, 420 g ae/ha): 91.0% | Visual % injury (Ave) ([5]; T1, 1680 g ae/ha): 96.5% | Visual % injury (Ave) ([5]; T1, 3360 g ae/ha): 95.8% | Visual % injury (Ave) ([5]; T2, 420 g ae/ha): 85.0% | Visual % injury (Ave) ([5]; T2, 840 g ae/ha): 87.5% | Visual % injury (Ave) ([5]; T2, 1680 g ae/ha): 92.5% | Visual % injury (Ave) ([5]; T2, 3360 g ae/ha): 95.0% | Visual % injury (Ave) ([6]; T1 study, 105 g ae/ha): 40.0% | Visual % injury (Ave) ([6]; T1 study, 420 g ae/ha): 30.0% | Visual % injury (Ave) ([6]; T1 study, 1680 g ae/ha): 55.0% | Visual % injury (Ave) ([6]; T1 study, 3360 g ae/ha): 57.5% | Visual % injury (Ave) ([6]; T2 study, 420 g ae/ha): 40.0% | Visual % injury (Ave) ([6]; T2 study, 840 g ae/ha): 47.5% | Visual % injury (Ave) ([6]; T2 study, 1680 g ae/ha): 41.3% | Visual % injury (Ave) ([6]; T2 study, 3360 g ae/ha): 35.0% | Visual % injury (Ave) ([6]; T3 study, 420 g ae/ha): 42.5% | Visual % injury (Ave) ([6]; T3 study, 840 g ae/ha): 40.0% | Visual % injury (Ave) ([6]; T3 study, 1680 g ae/ha): 47.5% | Visual % injury (Ave) ([6]; T3 study, 3360 g ae/ha): 77.5% | Visual % injury (Ave) ([7]; T1, 105 g ae/ha): 23.0% | Visual % injury (Ave) ([7]; T1, 420 g ae/ha): 37.5% | Visual % injury (Ave) ([7]; T1, 1680 g ae/ha): 48.8% | Visual % injury (Ave) ([7]; T1, 3360 g ae/ha): 63.8% | Visual % injury (Ave) ([7]; T2, 420 g ae/ha): 0.0% | Visual % injury (Ave) ([7]; T2, 1680 g ae/ha): 1.8% | Visual % injury (Ave) ([7]; T2, 3360 g ae/ha): 17.5% | injury range [7, 8]: less than 20% | Visual % injury (Ave) ([7]; T3, 420 g ae/ha): 0.0% | Visual % injury (Ave) ([7]; T3, 1680 g ae/ha): 0.0% | Visual % injury (Ave) ([7]; T3, 3360 g ae/ha): 4.3% | injury range [7, 9]: less than 20%
